The record followed here is patent publication US11939314B2, “Quinolin-2-one derivatives” (MERCK PATENT GMBH, priority 2016, dated 2024).

For one assay, the target named is T1, c-Kit(V654A) (Homo sapiens, UniProt P10721, V654A).
T1 construct: amino acids 544-end containing the V654A mutation; GST (N)
Put plainly: c-Kit(V654A) assay. Format: biochemical. The settings on record: recombinant human c-Kit aa 544-end, 200 μM ATP, 1.4E-06 means 1.4×10^−6, read-out: Inhibition (IC50) of c-KIT (V654A). The method, boiled down:
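Radiometric filter-binding read-out: substrate 33P incorporation counted by scintillation after P30 filtermat washes in 75 mM phosphoric acid and methanol. Enzyme: N-GST recombinant human c-Kit aa 544-end carrying V654A.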

The next assay concerns the target T2, PDGFRalpha(V561D) (Homo sapiens, UniProt P16234, V561D).
T2 construct: recombinant human PDGFRalpha, amino acids 550end containing the V561 D mutation; 6His (N)
Description: PDGFRalpha(V561D) assay. The settings on record: recombinant human PDGFRalpha aa 550-end, 200 μM ATP, 1.4E-06 means 1.4×10^−6, read-out: Inhibition (IC50) of PDGFRα (V561D). It counts as biochemical. The method, boiled down:
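Radiometric filter-binding assay: substrate phosphorylation by recombinant N-His-tagged human PDGFRα 550-end V561D was quenched with 3% phosphoric acid after 40 min at room temperature, then counted.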

T2 sequence (P16234 550-1089 V561D): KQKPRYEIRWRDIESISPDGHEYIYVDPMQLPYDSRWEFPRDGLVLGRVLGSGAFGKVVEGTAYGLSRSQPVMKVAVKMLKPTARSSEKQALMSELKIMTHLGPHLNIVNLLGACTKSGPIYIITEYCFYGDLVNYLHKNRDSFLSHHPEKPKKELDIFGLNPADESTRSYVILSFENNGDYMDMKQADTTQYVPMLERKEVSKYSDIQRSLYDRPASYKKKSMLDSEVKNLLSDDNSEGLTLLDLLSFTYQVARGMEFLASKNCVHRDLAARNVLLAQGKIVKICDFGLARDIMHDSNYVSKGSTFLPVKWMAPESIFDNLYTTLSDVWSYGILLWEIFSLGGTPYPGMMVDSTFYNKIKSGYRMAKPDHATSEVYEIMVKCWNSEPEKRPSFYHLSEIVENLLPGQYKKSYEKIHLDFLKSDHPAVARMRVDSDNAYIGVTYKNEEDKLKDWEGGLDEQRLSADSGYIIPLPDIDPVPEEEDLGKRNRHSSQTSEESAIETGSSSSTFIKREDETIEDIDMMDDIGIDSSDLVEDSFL
T1 sequence (P10721 544-976 V654A): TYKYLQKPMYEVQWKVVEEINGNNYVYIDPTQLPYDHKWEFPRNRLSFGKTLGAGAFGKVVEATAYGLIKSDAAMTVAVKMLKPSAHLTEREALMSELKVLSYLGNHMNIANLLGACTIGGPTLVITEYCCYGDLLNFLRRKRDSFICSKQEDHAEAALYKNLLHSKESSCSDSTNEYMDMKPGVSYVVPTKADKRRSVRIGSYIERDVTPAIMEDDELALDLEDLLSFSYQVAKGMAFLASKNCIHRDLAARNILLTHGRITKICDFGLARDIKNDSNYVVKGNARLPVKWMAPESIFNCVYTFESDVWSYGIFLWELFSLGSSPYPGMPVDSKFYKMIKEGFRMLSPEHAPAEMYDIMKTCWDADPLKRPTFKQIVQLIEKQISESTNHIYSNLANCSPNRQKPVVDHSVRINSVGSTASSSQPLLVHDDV

For `O=C(c1ccc(-n2cc(-c3cc4ccc(C(F)(F)F)cc4[nH]c3=O)nn2)cc1)N1CCNCC1` [A142, 3-{1-[4-(piperazine-1-carbonyl)-phenyl]-1H-[1,2,3]triazol-4-yl}-7-trifluoromethyl-1H-quinolin-2-one], the IC50 came out at 280 nM on c-Kit(V654A) and 2800 nM at PDGFRalpha(V561D).

Regarding `O=c1[nH]c2cc(F)c(F)cc2cc1-c1cn(-c2ccc(CCN3CCCC3)cc2)nn1` [A115a, 6,7-difluoro-3-{1-[4-(2-pyrrolidin-1-yl-ethyl)-phenyl]-1H-[1,2,3]triazol-4-yl}-1H-quinolin-2-one], the concentration for half-maximal inhibition (IC50) at c-Kit(V654A) came to 160 nM; at PDGFRalpha(V561D), 1500 nM.

Consider `CC(C)(c1ccc(-n2cc(-c3cc4ccccc4[nH]c3=O)nn2)cc1)S(C)(=O)=O` [A81, 3-{1-[4-(1-methanesulfonyl-1-methyl-ethyl)-phenyl]-1H-[1,2,3]triazol-4-yl}-1H-quinolin-2-one], for which the IC50 is 17 nM on c-Kit(V654A) and 6 nM at PDGFRalpha(V561D).

As for `CN(C(=O)[C@@H]1CCCO1)c1ccc(-n2cc(-c3cc4cc(F)ccc4[nH]c3=O)nn2)cc1` [A344, (S)-tetrahydro-furan-2-carboxylic acid {4-[4-(6-fluoro-2-oxo-1,2-dihydro-quinolin-3-yl)-[1,2,3]triazol-1-yl]-phenyl}-methyl-amide], the IC50 on c-Kit(V654A) was 9.7 nM; on PDGFRalpha(V561D) it was 16 nM.

On to `CCN(CC)CCN1CCN(C(=O)c2ccc(-n3cc(-c4cc5cc(F)c(F)cc5[nH]c4=O)nn3)cc2)CC1` [A189, 3-(1-{4-[4-(2-diethylamino-ethyl)-piperazine-1-carbonyl]-phenyl}-1H-[1,2,3]triazol-4-yl)-6,7-difluoro-1H-quinolin-2-one], for which the IC50 amounted to 110 nM on c-Kit(V654A) and 430 nM on PDGFRalpha(V561D).

On to `COCCCN1CCN(C(=O)c2ccc(-n3cc(-c4cc5cccnc5[nH]c4=O)nn3)cc2)CC1` [A89, 3-(1-{4-[4-(3-methoxy-propyl)-piperazine-1-carbonyl]-phenyl}-1H-[1,2,3]triazol-4-yl)-1H-[1,8]naphthyridin-2-one], for which the IC50 stood at 36 nM on c-Kit(V654A) and 8 nM at PDGFRalpha(V561D).

Regarding `COCC1CCN(C(=O)c2ccc(-n3cc(-c4cc5cc(F)c(F)cc5[nH]c4=O)nn3)cc2)C1` (centres unmarked) [A109, 6,7-difluoro-3-{1-[4-(3-methoxymethyl-pyrrolidine-1-carbonyl)-phenyl]-1H-[1,2,3]triazol-4-yl}-1H-quinolin-2-one], the IC50 on c-Kit(V654A) turned out to be 12 nM; on PDGFRalpha(V561D), 3.4 nM.

On to `O=C(c1ccc(-n2cc(-c3cc4cc(F)ccc4[nH]c3=O)nn2)cc1)N1CCCCC1CO` (centres unmarked) [A214, 6-fluoro-3-{1-[4-(2-hydroxymethyl-piperidine-1-carbonyl)-phenyl]-1H-[1,2,3]triazol-4-yl}-1H-quinolin-2-one], for which the IC50 on c-Kit(V654A) was determined as 72 nM; at PDGFRalpha(V561D), 79 nM.

For `O=C(c1ccc(-n2cc(-c3cc4cc(F)ccc4[nH]c3=O)nn2)cc1)N1CCCC(O)C1` (centres unmarked) [A184, 6-fluoro-3-{1-[4-(3-hydroxy-piperidine-1-carbonyl)-phenyl]-1H-[1,2,3]triazol-4-yl}-1H-quinolin-2-one], the half-inhibitory concentration (IC50) was determined as 18 nM on c-Kit(V654A) and 11 nM at PDGFRalpha(V561D).

Turning to `O=C1OCCN1c1ccc(-n2cc(-c3cc4cc(F)ccc4[nH]c3=O)nn2)cc1` [A98, 6-fluoro-3-{1-[4-(2-oxo-oxazolidin-3-yl)-phenyl]-1H-[1,2,3]triazol-4-yl}-1H-quinolin-2-one], the 50% inhibitory concentration (IC50) on c-Kit(V654A) amounted to 180 nM; on PDGFRalpha(V561D), 75 nM.

`CC(=O)O[C@H]1CCN(C(=O)c2ccc(-n3cc(-c4cc5cc(F)ccc5[nH]c4=O)nn3)cc2)C1` [A180, acetic acid (S)-1-{4-[4-(6-fluoro-2-oxo-1,2-dihydro-quinolin-3-yl)-[1,2,3]triazol-1-yl]-benzoyl}-pyrrolidin-3-yl ester]: the IC50 was determined as 9.5 nM on c-Kit(V654A) and 0.5 nM on PDGFRalpha(V561D).

Turning to `O=C(c1ccc(-n2cc(-c3cc4cc(Cl)ccc4[nH]c3=O)nn2)cc1)N1CC[C@@H](F)C1` [A270, 6-chloro-3-{1-[4-((R)-3-fluoro-pyrrolidine-1-carbonyl)-phenyl]-1H-[1,2,3]triazol-4-yl}-1H-quinolin-2-one], the IC50 stood at 26 nM on c-Kit(V654A) and 0.2 nM on PDGFRalpha(V561D).

For `CN1CCN(C(=O)c2ccc(-n3cc(-c4cc5cc(F)c(F)cc5[nH]c4=O)nn3)cc2)CC1` [A157, 6,7-difluoro-3-{1-[4-(4-methyl-piperazine-1-carbonyl)-phenyl]-1H-[1,2,3]triazol-4-yl}-1H-quinolin-2-one], the IC50 was found to be 5.9 nM on c-Kit(V654A) and 0.32 nM at PDGFRalpha(V561D).

With `CN1CCN(C(=O)c2ccc(-n3cc(-c4cc5ccncc5[nH]c4=O)nn3)cc2)CC1` [A63, 3-{1-[4-(4-methyl-piperazine-1-carbonyl)-phenyl]-1H-[1,2,3]triazol-4-yl}-1H-[1,7]naphthyridin-2-one], the results for the IC50 on c-Kit(V654A) and on PDGFRalpha(V561D) were 130 nM and 40 nM, respectively.

`COCCCN1CCN(C(=O)c2ccc(-n3cc(-c4cc5c(F)cccc5[nH]c4=O)nn3)cc2)CC1` [A87, 5-fluoro-3-(1-{4-[4-(3-methoxy-propyl)-piperazine-1-carbonyl]-phenyl}-1H-[1,2,3]triazol-4-yl)-1H-quinolin-2-one]: the IC50 came out at 25 nM on c-Kit(V654A) and 12 nM on PDGFRalpha(V561D).

For the compound `NC(=O)[C@@H]1CCCN1C(=O)c1ccc(-n2cc(-c3cc4cc(F)ccc4[nH]c3=O)nn2)cc1` [A242, (S)-1-{4-[4-(6-fluoro-2-oxo-1,2-dihydro-quinolin-3-yl)-[1,2,3]triazol-1-yl]-benzoyl}-pyrrolidine-2-carboxylic acid amide], the IC50 at c-Kit(V654A) was determined as 11 nM; at PDGFRalpha(V561D), 17 nM.

Turning to `COC[C@@H]1CCCN1C(=O)c1ccc(-n2cc(-c3cc4cc(F)ccc4[nH]c3=O)nn2)cc1` [A215, 6-fluoro-3-{1-[4-((S)-2-methoxymethyl-pyrrolidine-1-carbonyl)-phenyl]-1H-[1,2,3]triazol-4-yl}-1H-quinolin-2-one], the values for the IC50 at c-Kit(V654A) and at PDGFRalpha(V561D) were 64 nM and 220 nM, respectively.

In the case of `O=C(c1ccc(-n2cc(-c3cc4cc(Cl)ccc4[nH]c3=O)nn2)cc1)N1CCC2(COC2)C1` [A257, 6-chloro-3-{1-[4-(2-oxa-6-aza-spiro[3.4]octane-6-carbonyl)-phenyl]-1H-[1,2,3]triazol-4-yl}-1H-quinolin-2-one], the half-maximal inhibitory concentration (IC50) is 27 nM on c-Kit(V654A) and 3.7 nM at PDGFRalpha(V561D).

For the compound `COc1ccc2cc(-c3cn(-c4ccc(C(=O)N5CCOCC5)cc4)nn3)c(=O)[nH]c2c1` [A93, 7-methoxy-3-{1-[4-(morpholine-4-carbonyl)-phenyl]-1H-[1,2,3]triazol-4-yl}-1H-quinolin-2-one], the IC50 on c-Kit(V654A) was 320 nM; at PDGFRalpha(V561D), 310 nM.

In the case of `O=C(c1ccc(-n2cc(-c3cc4cc(F)ccc4[nH]c3=O)nn2)cc1)N1CCNC[C@@H]1CO` [A316, 6-fluoro-3-{1-[4-((R)-2-hydroxymethyl-piperazine-1-carbonyl)-phenyl]-1H-[1,2,3]triazol-4-yl}-1H-quinolin-2-one], the figures for the IC50 on c-Kit(V654A) and at PDGFRalpha(V561D) were 120 nM and 520 nM, respectively.

As for `O=C(c1cccc(-n2cc(-c3cc4ccccc4[nH]c3=O)nn2)c1)N1CCNCC1` [A78, 3-{1-[3-(piperazine-1-carbonyl)-phenyl]-1H-[1,2,3]triazol-4-yl}-1H-quinolin-2-one], the figures for the IC50 at c-Kit(V654A) and on PDGFRalpha(V561D) were 17 nM and 31 nM, respectively.

With `O=c1[nH]c2ccccc2cc1-c1cn(-c2ccc(OCCN3CCCC3)cc2)nn1` [A14, 3-{1-[4-(2-pyrrolidin-1-yl-ethoxy)-phenyl]-1H-[1,2,3]triazol-4-yl}-1H-quinolin-2-one], the results for the IC50 on c-Kit(V654A) and at PDGFRalpha(V561D) were 23 nM and 20 nM, respectively.

For the compound `CC(=O)OC1CCCN(C(=O)c2ccc(-n3cc(-c4cc5cc(F)ccc5[nH]c4=O)nn3)cc2)C1` (centres unmarked) [A103, acetic acid 1-{4-[4-(6-fluoro-2-oxo-1,2-dihydro-quinolin-3-yl)-[1,2,3]triazol-1-yl]-benzoyl}-piperidin-3-yl ester], the IC50 at c-Kit(V654A) worked out at 8.6 nM; at PDGFRalpha(V561D) it was 35 nM.

Take `CN(C)C[C@@H]1CCCN1C(=O)c1ccc(-n2cc(-c3cc4cc(F)c(F)cc4[nH]c3=O)nn2)cc1` [A323, 3-{1-[4-((S)-2-dimethylaminomethyl-pyrrolidine-1-carbonyl)-phenyl]-1H-[1,2,3]triazol-4-yl}-6,7-difluoro-1H-quinolin-2-one]: the half-maximal inhibitory concentration (IC50) on c-Kit(V654A) and on PDGFRalpha(V561D) was 220 nM each time.

Regarding `CN(C)[C@H]1CCCN(C(=O)c2ccc(-n3cc(-c4cc5ccc(F)cc5[nH]c4=O)nn3)cc2)C1` [A336, 3-{1-[4-((S)-3-dimethylamino-piperidine-1-carbonyl)-phenyl]-1H-[1,2,3]triazol-4-yl}-7-fluoro-1H-quinolin-2-one], the half-inhibitory concentration (IC50) turned out to be 180 nM at c-Kit(V654A) and 240 nM on PDGFRalpha(V561D).

Turning to `COC(=O)c1cc(-n2cc(-c3cc4ccccc4[nH]c3=O)nn2)ccn1` [A17, 4-[4-(2-oxo-1,2-dihydro-quinolin-3-yl)-[1,2,3]triazol-1-yl]-pyridine-2-carboxylic acid methyl ester], the IC50 was found to be 290 nM on c-Kit(V654A) and 67 nM at PDGFRalpha(V561D).

For the compound `COCCO[C@@H]1CCN(C(=O)c2ccc(-n3cc(-c4cc5cc(Cl)ccc5[nH]c4=O)nn3)cc2)C1` [A260, 6-chloro-3-(1-{4-[(R)-3-(2-methoxy-ethoxy)-pyrrolidine-1-carbonyl]-phenyl}-1H-[1,2,3]triazol-4-yl)-1H-quinolin-2-one], the 50% inhibitory concentration (IC50) is 51 nM on c-Kit(V654A) and 100 nM at PDGFRalpha(V561D).

For `CN1CCN(C(=O)Cc2ccc(-n3cc(-c4cc5cc(F)c(F)cc5[nH]c4=O)nn3)cc2)CC1` [A169, 6,7-difluoro-3-(1-{4-[2-(4-methyl-piperazin-1-yl)-2-oxo-ethyl]-phenyl}-1H-[1,2,3]triazol-4-yl)-1H-quinolin-2-one], the half-maximal inhibitory concentration (IC50) at c-Kit(V654A) stood at 14 nM; at PDGFRalpha(V561D) it was 430 nM.

In general, IC50 refers to the concentration that gives 50% inhibition.
